# Experimental data published in patent publication EP1650209A1, “Griseusin derivatives and their use as antitumor agents” (Oncotest GmbH, priority 2004, dated 2006).
# Legend:
# Assay in all cases: Proliferation inhibition of cancer cells (propidium iodide fluorescence)
# Type in all cases: cell-based, human
# MDA-231 = conditions: Breast, MDA-231 cell line
# Description: (§1) Using various human cancer cells in vitro, the concentrations of the test compounds (A, B, C, D, E, F), which inhibit the proliferation of cancer cells by 50% (IC50) and 70% (IC70) were determined. Specifically, each cell line of bladder cancer (BXF 1218L and T-24), glioblastoma (CNXF 498NL), colic cancer (HCT-116 and HT-29), gastric cancer (GXF 251 L), head and neck cancer (HNXF 536L), non small cell lung cancer (LXF 1121L, LXF 289L, LXF 526L, LXF 529L, LXF 629L and H-460), mammary cancer (MAXF 401NL, MCF-7, MDA-231 and MDA-468), melanoma (MEXF 276L, MEXF 394NL, MEXF 462NL, MEXF 514L and MEXF 520L), ovary cancer (OVXF 1619L, OVXF 899L and OVCAR-3), pancreatic cancer (PAXF 1657L and PANC-1), prostate cancer (22Rv1, DU-145, LNCaP and PC3M), pleuramesothelioma (PXF 1752L), renal cancer (RXF 1781 L, RXF 393NL, RXF 486L and RXF 944L), and uterine cancer (UXF 1138L) is added to a 96-well microtiter plate at a density of 3.6-11.2x10^3 cells per well in RPMI-1640 medium containing 10% fetal calf serum and 0.1% gentamicin and incubated for 24 hours. After 24 hours RPMI-1640 medium containing 10% fetal calf serum and 0.1% gentamicin, together with a test compound, is added thereto. Then, this plate is incubated at 37°C for 4 days in a humidified atmosphere of air containing 5% CO2. Thereafter, the cell culture medium with or without drug was replaced by 200 µl of an aqueous PI solution (7 µg/ml propidium iodide). Applying a freeze thaw cycle to permeabilize intact cell walls, staining of DNA was achieved, and the fluorescence of each well was measured using the Cy-tofluor 4000 microplate reader (excitation 530 nm, emission 620 nm), giving a direct relationship to the total cell number. Proliferation inhibition is expressed as test versus untreated control (T/C-value [%]). IC50 and IC70 values were determined by plotting compound concentration versus cell viability.
# PAXF 1657L = conditions: Pancreas, PAXF 1657L cell line
# Description: as §1
# HCT-116 = conditions: Colon, HCT-116 cell line
# Description: as §1
# PXF 1752L = conditions: Pleuramesothelio, PXF 1752L cell line
# Description: as §1
# PANC-1 = conditions: Pancreas, PANC-1 cell line
# Description: as §1
# OVCAR-3 = conditions: Ovary, OVCAR-3 cell line
# Description: as §1
# UXF 1138L = UXF 1138L cell line
# Description: as §1
# MEXF 394NL = conditions: Melanoma, MEXF 394NL cell line
# Description: as §1
# LXFA 629L = conditions: Lung, non small cell, LXFA 629L cell line
# Description: as §1
# LXFA 1121 L = conditions: Lung, non small cell, LXFA 1121 L cell line
# Description: as §1
# CNXF 498NL = conditions: Glioblastoma, CNXF 498NL cell line
# Description: as §1
# MEXF 462NL = MEXF 462NL cell line
# Description: as §1
# HT-29 = conditions: Colon, HT-29 cell line
# Description: as §1
smiles,measurement,setting,value
"C[C@@H]1CC(=O)[C@@H](O)[C@]2(O1)O[C@@H]1CC(=O)O[C@@H]1C1=C2C(=O)c2c(O)cccc2C1=O [Compound B, 4'-dehydro-deacetylgriseusin A]",IC50,MDA-231,0.068 µg/mL
same,IC70,MDA-231,0.136 µg/mL
same,IC50,PAXF 1657L,0.094 µg/mL
same,IC70,PAXF 1657L,0.179 µg/mL
same,IC50,HCT-116,0.697 µg/mL
same,IC70,HCT-116,1.333 µg/mL
same,IC50,PXF 1752L,0.124 µg/mL
same,IC70,PXF 1752L,0.208 µg/mL
same,IC50,PANC-1,0.117 µg/mL
same,IC70,PANC-1,0.200 µg/mL
same,IC50,OVCAR-3,0.521 µg/mL
same,IC70,OVCAR-3,1.309 µg/mL
same,IC50 value,UXF 1138L; 4 days,0.216 µg/mL
same,IC50,UXF 1138L; Uterus,0.216 µg/mL
same,IC70,UXF 1138L; Uterus,0.524 µg/mL
same,IC50,MEXF 394NL,0.035 µg/mL
same,IC70,MEXF 394NL,0.086 µg/mL
same,IC50,LXFA 629L,0.234 µg/mL
same,IC70,LXFA 629L,0.671 µg/mL
same,IC50,LXFA 1121 L,0.083 µg/mL
same,IC70,LXFA 1121 L,0.147 µg/mL
same,IC50,CNXF 498NL,0.107 µg/mL
same,IC70,CNXF 498NL,0.184 µg/mL
same,IC50 value,MEXF 462NL; 4 days,0.086 µg/mL
same,IC50,MEXF 462NL; Melanoma,0.086 µg/mL
same,IC70,MEXF 462NL; Melanoma,0.158 µg/mL
same,IC50,HT-29,0.114 µg/mL
same,IC70,HT-29,0.177 µg/mL
